Values joined by “and” are separate entries in the source; they are usually repeats but may differ in a detail not shown here. Equal entries are not always repeated.
How the values were obtained:
[1] = system: THP-1-derived macrophages; experiment: Macrophage viability, compound without CPP2; type: cell-based, human
Description: Cell viability was assessed using the MTS assay (CellTiter 96® Aqueous One Solution Cell Proliferation Assay, G3580; Promega, Madison, WI, USA) according to the manufacturer’s instructions. Assays using combined treatment of CPPs or CaP and test compounds were performed in 24-well plates using 20,000 cells per well and assays using test compounds only were performed in a 96-well plate format with a seeding density of 10,000 (VSMC) or 50,000 (THP-1) cells per well, respectively. For controls, cells were treated with respective complete medium only and results were calculated as % of control. […]
(n = 3 independent experiments).

[2] = system: TNFα release from THP-1-derived macrophages; experiment: TNFα in macrophage supernatants after CPP2 and compounds; type: cell-based, human; conditions: for TNFα concentration in macrophage supernatants: 24 h, unit not given
Description: Macrophage accumulation and inflammation coincide with the initial phase of calcification. To this end, VSMCs and THP-1-derived macrophages were exposed to CPP2-supplemented medium. CPP2 prepared from human serum as described previously[61] (Supplementary Figs. 6 and 7), induced a pronounced VSMC monolayer calcification after 48 h, which was decreased by (OEG2)2-IP4 in a dose-dependent fashion, and the effect became significant at 10 µM (Fig. 3e). […] Both H2O2 (proxy for oxidative stress) and tumor necrosis factor-alpha (TNF-α) (proxy for inflammatory response) levels were assayed in the VSMC culture supernatants subsequent to CPP2 treatment with and without compounds[30]. However, no increase in H2O2 nor TNF-α compared to control could be detected in either assay. For the CPP-induced VSMC calcification assay (Fig. 3e) a roughly 10-fold higher concentration of (OEG2)2-IP4 was necessary to achieve similar activity as in the CaP-induced VSMC calcification assay (Fig. 3b). […] In the CaP assay, low inhibitor concentration may be sufficient to inhibit crystal nucleation, whereas for the CPP assay higher inhibitor concentrations may be needed to achieve sufficient particle stabilization by chemisorption of inhibitor onto CPPs. Similar results have been reported for hydrogen sulfide in the context of VC[62],[64]. […] An increase in the TNFα levels in the cell culture supernatants was not observed for (OEG2)2-IP4 with (Fig. 3h) and without (Supplementary Fig. 10) combined CPP2 treatment.
THP-1 cells were plated at a density of 200,000 cells/well in a 24-well plate, differentiated as stated above, and subsequently treated with or without CPP2 (50 μg Ca/mL) in complete medium with or without test compounds (3, 10, 30, 100 μM) for 24 h at 37 °C, 5% CO2.
Human TNF-α was assayed in cell culture supernatants using commercial multiplex immunoassay kits (U-Plex of TNF-α (custom-made multiplex plate) and Human TNF- Kit (K151QWD-1), both from MesoScaleDiscovery, Rockville, MD, USA), and corrected for total protein content using the Micro BCA^TM Protein Assay Kit.

[3] = target: T1, Adenosine A2A (Homo sapiens, UniProt P29274); experiment: Off-target 200610; type: binding
T1 construct: purchased Eurofins Panlabs Discovery Services Taiwan, Ltd
Description: (§1) The potential off-target activity of 10 µM (OEG2)2-IP4 was assessed against a panel of 87 enzymes, receptors, or ion channels that are used in standard safety pharmacology screens.
(§2) 3.2. Off-target screening assay
(§3) The experiments were conducted by a contract research organization (Eurofins Panlabs Discovery Services Taiwan, Ltd.) and details on the respective assays can be retrieved via the catalog number provided in Supplementary Table 11 from the company’s webpage
(§4) (https://www.eurofinsdiscoveryservices.com/). […]
(§5) At sacrifice the left tibia of animals of the rat model with dietary adenine/high-phosphate-induced uremia and VC was collected, fixed with 70% v/v EtOH and embedded in methyl methacrylate. The trabecular bone compartment is known to be the most metabolic active i.e. actively re-structured bone compartment in CKD. Therefore, histomorphometric and micro-computed tomography (µCT) analysis of bone was performed on the trabecular compartment. Tibial sections were Goldner-stained for histomorphometric analysis of the proximal metaphysis using the AxioVision Release 4.5 software, as […]
(§6) described previously5. […]

[4] = target: T2, Transporter, Serotonin (5-Hydroxytryptamine) (SERT) (Homo sapiens, UniProt P31645); experiment: Off-target 274030; type: binding
T2 construct: purchased Eurofins Panlabs Discovery Services Taiwan, Ltd
Description: as §1, §2
(§7) The experiments were conducted by a contract research organization (Eurofins Panlabs Discovery
(§8) Services Taiwan, Ltd.) and details on the respective assays can be retrieved via the catalog number
(§9) provided in Supplementary Table 11 from the company’s webpage
as §4

[5] = target: T3, Cannabinoid CB2 (Homo sapiens, UniProt P34972); experiment: Off-target 217100; type: binding
T3 construct: purchased Eurofins Panlabs Discovery Services Taiwan, Ltd
Description: as §1, §2, §3, §4, §5, §6

[6] = target: T4, Muscarinic M2 (Homo sapiens, UniProt P08172); experiment: Off-target 252710; type: binding
T4 construct: purchased Eurofins Panlabs Discovery Services Taiwan, Ltd
Description: as §1, §2, §3, §4, §5, §6

[7] = system: Calcium Channel L-Type, Dihydropyridine; experiment: Off-target 214600; type: binding, Rat; conditions: 10 µM
Description: as §1, §2, §7, §8, §9, §4

[8] = target: T5, Leukotriene, Cysteinyl CysLT1 (Homo sapiens, UniProt Q9Y271); experiment: Off-target 250460; type: binding
T5 construct: purchased Eurofins Panlabs Discovery Services Taiwan, Ltd
Description: as §1, §2, §7, §8, §9, §4

[9] = Precipitation in culture medium (naked eye, microscope); type: physicochemical; conditions: 100 µM, VSMC and macrophage assays
Description: Macrophage accumulation and inflammation coincide with the initial phase of calcification. To this end, VSMCs and THP-1-derived macrophages were exposed to CPP2-supplemented medium. CPP2 prepared from human serum as described previously[61] (Supplementary Figs. 6 and 7), induced a pronounced VSMC monolayer calcification after 48 h, which was decreased by (OEG2)2-IP4 in a dose-dependent fashion, and the effect became significant at 10 µM (Fig. 3e). […] Both H2O2 (proxy for oxidative stress) and tumor necrosis factor-alpha (TNF-α) (proxy for inflammatory response) levels were assayed in the VSMC culture supernatants subsequent to CPP2 treatment with and without compounds[30]. However, no increase in H2O2 nor TNF-α compared to control could be detected in either assay. For the CPP-induced VSMC calcification assay (Fig. 3e) a roughly 10-fold higher concentration of (OEG2)2-IP4 was necessary to achieve similar activity as in the CaP-induced VSMC calcification assay (Fig. 3b). […]
Occurrence of precipitation in the different treatment groups was assessed visually by the naked eye and by a microscope (CTR6000, Leica Camera AG) at ×25 magnification at 0 and 24 h (performed once in duplicate).

T2 sequence (P31645 whole entry): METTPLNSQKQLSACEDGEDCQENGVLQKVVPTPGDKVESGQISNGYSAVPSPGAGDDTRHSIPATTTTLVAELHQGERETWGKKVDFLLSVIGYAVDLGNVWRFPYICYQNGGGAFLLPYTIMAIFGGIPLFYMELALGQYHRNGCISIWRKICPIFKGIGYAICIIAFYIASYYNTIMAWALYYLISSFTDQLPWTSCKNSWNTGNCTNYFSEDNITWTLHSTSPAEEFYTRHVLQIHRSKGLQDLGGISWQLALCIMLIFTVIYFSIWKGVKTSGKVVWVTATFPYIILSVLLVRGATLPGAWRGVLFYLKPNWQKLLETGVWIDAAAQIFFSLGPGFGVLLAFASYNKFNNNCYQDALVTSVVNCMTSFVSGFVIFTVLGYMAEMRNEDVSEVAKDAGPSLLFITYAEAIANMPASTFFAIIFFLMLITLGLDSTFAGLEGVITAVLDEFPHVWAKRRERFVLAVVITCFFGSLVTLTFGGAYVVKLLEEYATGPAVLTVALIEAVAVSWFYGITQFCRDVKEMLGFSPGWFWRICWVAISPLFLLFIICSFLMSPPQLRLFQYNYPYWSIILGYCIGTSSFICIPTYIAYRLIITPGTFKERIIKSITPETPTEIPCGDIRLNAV
T5 sequence (Q9Y271 whole entry): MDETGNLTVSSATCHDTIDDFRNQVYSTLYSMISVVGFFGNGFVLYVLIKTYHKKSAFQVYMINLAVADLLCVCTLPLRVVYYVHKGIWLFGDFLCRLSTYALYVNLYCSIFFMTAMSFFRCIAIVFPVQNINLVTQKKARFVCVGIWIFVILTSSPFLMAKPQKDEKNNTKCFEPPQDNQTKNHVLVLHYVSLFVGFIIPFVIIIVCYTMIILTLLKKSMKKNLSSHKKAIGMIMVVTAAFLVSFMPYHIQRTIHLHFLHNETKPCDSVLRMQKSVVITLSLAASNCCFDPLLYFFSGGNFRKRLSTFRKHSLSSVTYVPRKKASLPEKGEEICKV
T4 sequence (P08172 whole entry): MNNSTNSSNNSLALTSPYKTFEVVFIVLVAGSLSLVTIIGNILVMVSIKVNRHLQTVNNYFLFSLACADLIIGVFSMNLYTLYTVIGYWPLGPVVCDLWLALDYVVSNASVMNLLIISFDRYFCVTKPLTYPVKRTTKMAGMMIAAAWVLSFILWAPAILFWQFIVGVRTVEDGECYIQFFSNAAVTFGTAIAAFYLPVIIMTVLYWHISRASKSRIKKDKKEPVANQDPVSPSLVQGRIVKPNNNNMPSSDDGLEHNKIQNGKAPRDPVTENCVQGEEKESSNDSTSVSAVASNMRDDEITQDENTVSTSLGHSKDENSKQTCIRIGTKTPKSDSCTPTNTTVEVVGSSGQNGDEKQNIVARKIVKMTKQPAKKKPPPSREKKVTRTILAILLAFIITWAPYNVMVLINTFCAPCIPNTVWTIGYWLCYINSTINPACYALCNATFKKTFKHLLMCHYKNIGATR
T1 sequence (P29274 whole entry): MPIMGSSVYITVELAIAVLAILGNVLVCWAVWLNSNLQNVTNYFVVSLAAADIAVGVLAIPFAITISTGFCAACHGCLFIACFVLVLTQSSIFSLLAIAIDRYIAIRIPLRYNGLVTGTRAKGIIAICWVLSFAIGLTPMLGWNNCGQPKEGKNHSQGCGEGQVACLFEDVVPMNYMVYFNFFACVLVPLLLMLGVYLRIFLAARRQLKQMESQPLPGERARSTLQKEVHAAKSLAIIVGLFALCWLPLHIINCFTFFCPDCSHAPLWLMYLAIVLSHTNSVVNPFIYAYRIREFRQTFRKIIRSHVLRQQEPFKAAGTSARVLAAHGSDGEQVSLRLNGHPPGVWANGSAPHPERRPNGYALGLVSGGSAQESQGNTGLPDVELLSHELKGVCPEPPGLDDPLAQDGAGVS
T3 sequence (P34972 whole entry): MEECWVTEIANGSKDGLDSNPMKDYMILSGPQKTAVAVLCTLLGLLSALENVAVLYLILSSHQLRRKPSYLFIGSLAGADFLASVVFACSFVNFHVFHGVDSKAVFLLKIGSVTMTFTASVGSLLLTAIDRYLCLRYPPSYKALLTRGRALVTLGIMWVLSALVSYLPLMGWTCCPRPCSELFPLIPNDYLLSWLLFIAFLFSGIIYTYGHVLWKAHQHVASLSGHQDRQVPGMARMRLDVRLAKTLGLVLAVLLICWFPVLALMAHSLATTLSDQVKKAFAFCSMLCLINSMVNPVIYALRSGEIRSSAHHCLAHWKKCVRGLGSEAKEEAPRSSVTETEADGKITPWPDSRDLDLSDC

Structure (SMILES) | macrophage viability [1] | TNFα concentration in macrophage supernatants ([2]; 3 µM + CPP2 50 µg Ca/mL, replicates Fig. 3h) | TNFα concentration in macrophage supernatants ([2]; 10 µM + CPP2 50 µg Ca/mL) | TNFα concentration in macrophage supernatants ([2]; 30 µM + CPP2 50 µg Ca/mL) | increase in TNFα levels in supernatants ([2]; with combined CPP2 treatment) | inhibition at 10 µM [3] [%] | inhibition at 10 µM [4] [%] | inhibition at 10 µM [5] [%] | inhibition at 10 µM [6] [%] | % Inhibition [7] [%] | inhibition at 10 µM [8] [%] | precipitation in culture medium [9]
COCCOCCO[C@@H]1[C@@H](OP(=O)(O)O)[C@H](OCCOCCOC)[C@@H](OP(=O)(O)O)[C@@H](OP(=O)(O)O)[C@H]1OP(=O)(O)O [(OEG2)2-IP4, 4,6-Di-O-(methoxy-diethyleneglycol)-myo-inositol-1,2,3,5-tetrakis(phosphate)] | does not alter viability | 169.13 and 90.77 and 60.49 | 111.79 and 105.92 and 63.72 | 131.34 and 98.11 and 72.68 | not observed | 5 | 2 | 12 | 4 | 1 | 0 | –
O=P(O)(O)O[C@H]1[C@H](OP(=O)(O)O)[C@@H](OP(=O)(O)O)[C@H](OP(=O)(O)O)[C@@H](OP(=O)(O)O)[C@H]1OP(=O)(O)O [IP6, myo-Inositol hexakisphosphate] | – | – | – | – | – | – | – | – | – | – | – | precipitation in culture medium occurred
